Data: PubChem BioAssay AID566 (University of Pittsburgh Molecular Library Screening Center, 2006)
The source made the active and inactive calls. No rule for the calls is given here.

Target: Dual specificity protein phosphatase 6 (Rattus norvegicus) (UniProt Q64346)
Test: MKP-3 phosphatase inhibitors, repeat potency, dose response, biochemical, rat DUSP6, reproducibility testing, probe assessment (AID 566)
Conditions: recombinant MKP-3 phosphatase, fluorescence substrate

Sequence of Dual specificity protein phosphatase 6 (Rattus norvegicus) (Q64346 whole entry, looked up): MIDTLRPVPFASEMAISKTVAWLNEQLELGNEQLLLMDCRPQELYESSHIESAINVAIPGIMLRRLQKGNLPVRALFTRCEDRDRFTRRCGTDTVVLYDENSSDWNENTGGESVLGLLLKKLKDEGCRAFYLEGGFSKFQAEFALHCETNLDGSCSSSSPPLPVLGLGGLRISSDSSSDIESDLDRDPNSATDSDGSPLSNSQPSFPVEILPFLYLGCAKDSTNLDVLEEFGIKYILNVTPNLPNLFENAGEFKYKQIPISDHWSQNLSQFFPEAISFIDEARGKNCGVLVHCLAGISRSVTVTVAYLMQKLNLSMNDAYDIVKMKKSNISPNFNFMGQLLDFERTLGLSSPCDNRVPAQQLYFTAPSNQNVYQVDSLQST

Question: How did the IC50 turn out when `O=C1C(C2=C(O)c3ccccc3C2=O)=Nc2ccccc21` was run?
Answer: > 50 µM (inactive)
